Laboratory results from PubChem BioAssay (NCI).
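Where inhibition never reached the appropriate level, the endpoint shown equals the highest concentration tested. Otherwise, values were interpolated linearly from a five-concentration, 48-hour dose response in 96-well plates. Definition used: TGI = concentration required for complete inhibition of growth.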

What was measured:
Assay in all cases: NCI-60 cell line screen, 48 h
[1] = tested on: SK-MEL-28 melanoma
[2] = tested on: HCT-15 colon
[3] = tested on: U251 CNS
[4] = tested on: SW-620 colon
[5] = tested on: RXF 393 renal
[6] = tested on: NCI-H226 lung
[7] = tested on: IGROV1 ovarian
[8] = tested on: OVCAR-4 ovarian
[9] = tested on: SR leukemia
[10] = tested on: EKVX NSCLC
[11] = tested on: HL-60(TB) leukemia
[12] = tested on: OVCAR-5 ovarian
[13] = tested on: MCF7 breast
[14] = tested on: HOP-62 NSCLC
[15] = tested on: SK-MEL-5 melanoma
[16] = tested on: UACC-62 melanoma
[17] = tested on: A498 renal
[18] = tested on: LOX IMVI melanoma
[19] = tested on: MDA-MB-231 breast
[20] = tested on: COLO 205 colon
[21] = tested on: T-47D breast
[22] = tested on: SNB-19 CNS
[23] = tested on: HT29 colon
[24] = tested on: NCI-H23 lung
[25] = tested on: UO-31 renal
[26] = tested on: OVCAR-8 ovarian
[27] = tested on: TK-10 renal
[28] = tested on: MALME-3M melanoma
[29] = tested on: K-562 leukemia
[30] = tested on: KM12 colon
[31] = tested on: RPMI-8226 leukemia
[32] = tested on: SK-MEL-2 melanoma
[33] = tested on: MOLT-4 leukemia
[34] = tested on: M14 melanoma
[35] = tested on: ACHN renal
[36] = tested on: SNB-75 CNS
[37] = tested on: HOP-92 NSCLC
[38] = tested on: NCI-H460 lung
[39] = tested on: MDA-N
[40] = tested on: OVCAR-3 ovarian
[41] = tested on: UACC-257 melanoma
[42] = tested on: A549 NSCLC
[43] = tested on: PC-3 prostate
[44] = tested on: MDA-MB-435
[45] = tested on: DU-145 prostate
[46] = tested on: CAKI-1 renal
[47] = tested on: SF-295 CNS
[48] = tested on: NCI/ADR-RES ovarian
[49] = tested on: HCC-2998 colon
[50] = tested on: CCRF-CEM leukemia
[51] = tested on: SK-OV-3 ovarian
[52] = tested on: HCT-116 colon
[53] = tested on: SF-268 CNS
[54] = tested on: 786-0 renal
[55] = tested on: SF-539 CNS
[56] = tested on: NCI-H522 lung

Measured: TGI

CCOC(=O)c1csc(NC(=O)CN2CCN(C)CC2)n1
not listed: [52] | [53] | [54] | [55] | [56]
> 100 µM: all other assays above

CC(C)(C)[Si](C)(C)OC1/C(=C/C#N)C(n2ccc(=O)[nH]c2=O)OC1CO (stereo unspecified)
not listed: [2] | [6] | [7] | [10] | [11] | [18] | [31] | [36] | [41] | [49] | [50]
> 100 µM: all other assays above
